Patent publication US10358434B2, “2-(3-pyridinyl)-1H-benzimidazole derivative compound and medicament containing same” (NIHON MEDI-PHYSICS CO., LTD., priority 2014, dated 2019)
Where “and” joins values, the source holds several entries; their conditions need not be identical. Equal values may be shown once.

Assays:
human CYP11B2 = biological target: T1, human CYP11B2 (Homo sapiens, UniProt P19099); experiment: Aldosterone production inhibition in V79-B2 cells expressing human CYP11B2 (ELISA); format: cell-based; details: for IC50: V79-B2 cells, corticosterone 100 nmol/L, 4 hours, aldosterone by ELISA, mean or mean ± SD; for Selectivity factor: mean IC50 cortisol production inhibition divided by mean IC50 aldosterone production inhibition
T1 construct: expressed in transfected cells; host or cells: V79 cells (Chinese hamster lung-derived fibroblasts, from ECACC through DS Pharma Biomedical)
T1 sequence (P19099 25-503): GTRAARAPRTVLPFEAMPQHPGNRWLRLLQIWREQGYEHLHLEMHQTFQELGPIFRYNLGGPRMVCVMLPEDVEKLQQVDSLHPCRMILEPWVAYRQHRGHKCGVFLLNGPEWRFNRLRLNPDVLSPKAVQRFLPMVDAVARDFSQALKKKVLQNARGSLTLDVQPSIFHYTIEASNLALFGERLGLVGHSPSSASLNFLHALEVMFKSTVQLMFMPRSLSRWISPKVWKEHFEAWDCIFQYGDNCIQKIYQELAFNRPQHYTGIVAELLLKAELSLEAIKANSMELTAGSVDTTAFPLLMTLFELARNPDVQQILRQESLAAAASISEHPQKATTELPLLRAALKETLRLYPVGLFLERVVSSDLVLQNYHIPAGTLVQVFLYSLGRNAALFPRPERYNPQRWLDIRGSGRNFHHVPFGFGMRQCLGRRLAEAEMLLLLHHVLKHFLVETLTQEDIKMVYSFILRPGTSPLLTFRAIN
Protocol: (§1) This inhibition experiment can be carried out by the following operations. Human CYP11B1 and human CYP11B2 are allowed to individually express in Chinese hamster lung-derived fibroblasts. Subsequently, 11-deoxycortisol is added to the cells expressing human CYP11B1 to a final concentration of 100 nmol/L, and corticosterone is added to the cells expressing human CYP11B2 to a final concentration of 100 nmol/L. At the same time, a target compound used as an analytical sample is added to each of the cells to a final concentration of 10^−4 to 10^4 nmol/L. Thereafter, the concentration of cortisol as a metabolite of CYP11B1 is measured in the cells expressing human CYP11B1 according to ELISA (Enzyme-Linked ImmunoSorbent Assay), and the concentration of aldosterone as a metabolite of CYP11B2 is measured in the cells expressing human CYP11B2 according to ELISA. Provided that the aldosterone concentration and the cortisol concentration without addition of any target compound as a sample are each set at 100%, an inhibition curve is produced, and then inhibitory activity (IC50) is calculated.
(§2) Chinese hamster lung-derived fibroblasts, V79 cells (acquired from ECACC (European Collection of Cell Cultures) through DS Pharma Biomedical), were allowed to express human CYP11B2, so as to produce V79-B2, and were also allowed to express human CYP11B1, so as to produce V79-B1. V79 cells were cultured in a DMEM medium (containing 4,500 mg/L D-glucose, L-glutamine, and 110 mg/L sodium pyruvate; manufactured by Life Technologies). V79-B2 or V79-B1 was inoculated on a microplate, and then cultured overnight. Thereafter, a mixed solution of corticosterone and a compound as a test target was added into a culture supernatant of V79-B2, and a mixed solution of 11-deoxycortisol and a compound as a test target was added into a culture supernatant of V79-B1. As a solvent for these mixed solutions, the aforementioned DMEM medium further containing 0.1 v/v % dimethyl sulfoxide was used. The concentration of corticosterone or 11-deoxycortisol was adjusted to be 100 nmol/L by addition of the solvent. As test target compounds, (R)-4-iodometomidate (IMTO), and Compounds 100, 200, 300, 400, 500, and 601 to 610 synthesized by methods shown in Examples 1, 3, 5, 6, 8, 10, 12, 14, 16, 18, 20, 22, 24, 26, and 28, respectively, were used. The aforementioned mixed solution was prepared such that the concentration of each compound was 10^−4 to 10^4 nmol/L in the mixed solution. One hour later, the culture supernatant of V79-B1 was recovered, and the concentration of cortisol as a metabolite of CYP11B1 was measured by ELISA (Enzyme-Linked ImmunoSorbent Assay). Moreover, four hours later, the culture supernatant of V79-B2 was recovered, and the concentration of aldosterone as a metabolite of CYP11B2 was measured by ELISA. Provided that the concentration of aldosterone or the concentration of cortisol obtained when none of IMTO and Compounds 100, 200, 300, 400 and 500 was added was defined as 100%, an inhibition curve was produced, and the inhibitory activity (IC50) of each compound was then calculated.
(§3) In Tables 5 and 6, the term “Selectivity factor” indicates a quotient of the mean value of IC50 for cortisol production inhibition divided by the mean value of IC50 for aldosterone production inhibition. In addition, the symbol “n” indicates the number of tests.

human CYP11B1 = biological target: T2, human CYP11B1 (Homo sapiens, UniProt P15538); experiment: Cortisol production inhibition in V79-B1 cells expressing human CYP11B1 (ELISA); format: cell-based; details: 11-deoxycortisol 100 nmol/L, 1 hour, cortisol by ELISA, mean or mean ± SD
T2 construct: expressed in transfected cells; host or cells: V79 cells (Chinese hamster lung-derived fibroblasts, from ECACC through DS Pharma Biomedical)
T2 sequence (P15538 25-503): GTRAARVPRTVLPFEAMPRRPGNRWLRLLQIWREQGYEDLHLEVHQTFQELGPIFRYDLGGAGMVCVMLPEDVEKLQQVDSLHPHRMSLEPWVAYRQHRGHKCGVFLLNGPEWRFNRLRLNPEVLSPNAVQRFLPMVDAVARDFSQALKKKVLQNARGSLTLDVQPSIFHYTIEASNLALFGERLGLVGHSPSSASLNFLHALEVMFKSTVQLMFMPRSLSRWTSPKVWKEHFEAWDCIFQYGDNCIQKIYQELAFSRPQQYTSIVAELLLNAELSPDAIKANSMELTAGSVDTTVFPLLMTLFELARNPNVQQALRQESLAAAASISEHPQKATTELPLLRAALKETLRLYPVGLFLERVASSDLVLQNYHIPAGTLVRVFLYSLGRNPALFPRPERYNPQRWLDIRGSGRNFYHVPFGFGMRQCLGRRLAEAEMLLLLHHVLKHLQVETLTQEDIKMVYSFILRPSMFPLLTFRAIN
Protocol: as §1, §2, §3

Row | Molecule | IC50 (human CYP11B2) | Selectivity factor (human CYP11B2) | IC50 (human CYP11B1)
1 | FCCn1c(-c2cncc(Cn3ccnc3)c2)nc2cc(F)c(I)cc21 [Compound 400, 5-Fluoro-1-(2-fluoroethyl)-2-[5-(imidazol-1-ylmethyl)pyridin-3-yl]-6-iodobenzimidazole] | 44.5 nM | 7.77 | 345 nM
2 | FCCCn1c(-c2cncc(Cn3ccnc3)c2)nc2cc(F)c(Cl)cc21 [Compound 500, 6-Chloro-5-fluoro-1-(3-fluoropropyl)-2-[5-(imidazol-1-ylmethyl)pyridin-3-yl]benzimidazole] | 3.94 nM | 8.51 | 33.5 nM
3 | Ic1ccc2nc(-c3cncc(Cn4ccnc4)c3)n(C3CC3)c2c1 [Compound 602, 1-Cyclopropyl-2-[3-(1H-imidazol-1-ylmethyl)pyridin-5-yl]-6-iodo-1H-benzimidazole] | 2.17 nM | 20.5 | 44.5 nM
4 | Ic1ccc2nc(-c3cncc(Cn4ccnn4)c3)n(C3CC3)c2c1 [Compound 603, 1-Cyclopropyl-2-[3-(1H-1,2,3-triazol-1-ylmethyl)pyridin-5-yl]-6-iodo-1H-benzimidazole] | 18.1 nM | 16.4 | 296 nM
5 | FCCn1c(-c2cncc(Cn3ccnc3)c2)nc2ccc(I)cc21 [Compound 604, 1-(2-Fluoroethyl)-2-[5-{(imidazol-1-yl)methyl}pyridin-3-yl]-6-iodobenzimidazole] | 4.54 nM | 11.9 | 54 nM
6 | Fc1cc2nc(-c3cncc(Cn4ccnc4)c3)n(Cc3ccc(I)cc3)c2cc1Cl [Compound 605, 6-Chloro-5-fluoro-1-(4-iodobenzyl)-2-[5-(1H-imidazol-1-ylmethyl)-3-pyridinyl]-1H-benzimidazole] | 204 nM | 1.76 | 359 nM
7 | CC(C)n1c(-c2cncc(Cn3ccnc3)c2)nc2ccc(I)cc21 [Compound 606, 2-[5-{(1H-imidazol-1-yl)methyl}pyridin-3-yl]-6-iodo-1-isopropyl-1H-benzo[d]imidazole] | 116 nM | 3.17 | 368 nM
8 | Cn1c(-c2cncc(Cn3ccnc3)c2)nc2ccc(I)cc21 [Compound 607, 2-[5-{(1H-imidazol-1-yl)methyl}pyridin-3-yl]-6-iodo-1-methyl-1H-benzo[d]imidazole] | 0.93 nM | 7.62 | 7.07 nM
9 | CCn1c(-c2cncc(Cn3ccnc3)c2)nc2ccc(I)cc21 [Compound 608, 2-[5-{(1H-imidazol-1-yl)methyl}pyridin-3-yl]-1-ethyl-6-iodo-1H-benzo[d]imidazole] | 6.58 nM | 7.93 | 52.2 nM
10 | COc1cc(I)cc2c1nc(-c1cncc(Cn3ccnc3)c1)n2C1CC1 [Compound 609, 1-Cyclopropyl-2-[5-(imidazol-1-ylmethyl)pyridin-3-yl]-6-iodo-4-methoxybenzimidazole] | 1.49 nM | 10.4 | 15.5 nM
11 | FCCn1c(-c2cncc(Cn3cncc3I)c2)nc2cc(F)c(Cl)cc21 [Compound 610, 6-Chloro-5-fluoro-1-(2-fluoroethyl)-2-{5-(5-iodo-1H-imidazol-1-ylmethyl)pyridin-3-yl}benzimidazole] | 9.81 nM | 9.27 | 91 nM
12 | COC(=O)c1cncn1[C@H](C)c1ccc(I)cc1 [IMTO, (R)-4-iodometomidate, reference compound] | 0.21 nM and 0.24 nM | 1.01 and 1.03 | 0.22 nM and 0.25 nM
13 | Methyl 1-[4-(1-cyclopropyl-6-iodo-1H-imidazobenzo-2-yl)-3-pyridinylmethyl)]-1H-imidazolecarboxylate [Compound 601] | 3.09 nM | 12.2 | 37.8 nM
